Laboratory results published in PubChem BioAssay (NCI).
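In this assay, cells in 96-well plates receive the compound at five concentrations for 48 hours. Endpoints are linearly interpolated between the surrounding concentrations. GI50 is the concentration that inhibits growth by half. Definition used: TGI = concentration required for complete inhibition of growth.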

What was measured:
Test in all cases: DTP human tumour cell line panel, 48 h
[1] = test system: IGROV1 ovarian
[2] = test system: BT-549 breast
[3] = test system: CAKI-1 renal
[4] = test system: SF-268 CNS
[5] = test system: SNB-19 CNS
[6] = test system: EKVX NSCLC
[7] = test system: MCF7 breast
[8] = test system: TK-10 renal
[9] = test system: K-562 leukemia
[10] = test system: RXF 393 renal
[11] = test system: HCC-2998 colon
[12] = test system: CCRF-CEM leukemia
[13] = test system: NCI-H226 lung
[14] = test system: NCI-H522 lung
[15] = test system: SF-539 CNS
[16] = test system: SK-MEL-28 melanoma
[17] = test system: 786-0 renal
[18] = test system: NCI-H23 lung
[19] = test system: SR leukemia
[20] = test system: PC-3 prostate
[21] = test system: UACC-257 melanoma
[22] = test system: COLO 205 colon
[23] = test system: HCT-15 colon
[24] = test system: RPMI-8226 leukemia
[25] = test system: NCI-H460 lung
[26] = test system: SK-MEL-2 melanoma
[27] = test system: T-47D breast
[28] = test system: KM12 colon
[29] = test system: HOP-92 NSCLC
[30] = test system: HS 578T breast
[31] = test system: OVCAR-8 ovarian
[32] = test system: OVCAR-4 ovarian
[33] = test system: HT29 colon
[34] = test system: UACC-62 melanoma
[35] = test system: U251 CNS
[36] = test system: HCT-116 colon
[37] = test system: A549 NSCLC
[38] = test system: HOP-62 NSCLC
[39] = test system: M14 melanoma
[40] = test system: DU-145 prostate
[41] = test system: MDA-MB-231 breast
[42] = test system: MDA-MB-435
[43] = test system: NCI/ADR-RES ovarian
[44] = test system: A498 renal
[45] = test system: OVCAR-5 ovarian
[46] = test system: SF-295 CNS
[47] = test system: ACHN renal
[48] = test system: SNB-75 CNS
[49] = test system: SK-MEL-5 melanoma
[50] = test system: OVCAR-3 ovarian
[51] = test system: SK-OV-3 ovarian
[52] = test system: SN12C renal
[53] = test system: MALME-3M melanoma
[54] = test system: MOLT-4 leukemia
[55] = test system: LOX IMVI melanoma
[56] = test system: HL-60(TB) leukemia
[57] = test system: SW-620 colon
[58] = test system: UO-31 renal
[59] = test system: MDA-N

SMILES: Clc1ccc(-c2nn3ncccc3c2-c2ccnc(Nc3ccccc3)n2)cc1
- GI50 [1]: 2.29 µM
- TGI [1]: > 22 µM
- GI50 [2]: 10.7 µM
- TGI [2]: > 25 µM
- GI50 [3]: 2.5 µM
- TGI [3]: > 22.2 µM
- GI50 [4]: 11.5 µM
- TGI [4]: > 25 µM
- GI50 [5]: > 14.4 µM
- TGI [5]: > 25 µM
- GI50 [6]: 2.94 µM
- TGI [6]: > 25 µM
- GI50 [7]: 7.17 µM
- TGI [7]: > 25 µM
- GI50 [8]: 7.43 µM
- TGI [8]: > 20.4 µM
- GI50 [9]: 2.89 µM
- TGI [9]: > 25 µM
- GI50 [10]: 6.56 µM
- TGI [10]: > 25 µM
- GI50 [11]: 10.9 µM
- TGI [11]: > 25 µM
- GI50 [12]: 10.6 µM
- TGI [12]: > 25 µM
- GI50 [13]: > 13.1 µM
- TGI [13]: > 25 µM
- GI50 [14]: 5.99 µM
- TGI [14]: > 25 µM
- GI50 [15]: > 14.2 µM
- TGI [15]: > 25 µM
- GI50 [16]: > 22.2 µM
- TGI [16]: > 25 µM
- GI50 [17]: 8.2 µM
- TGI [17]: > 25 µM
- GI50 [18]: 10.5 µM
- TGI [18]: > 25 µM
- GI50 [19]: 7.66 µM
- TGI [19]: > 25 µM
- GI50 [20]: 7.3 µM
- TGI [20]: > 25 µM
- GI50 [21]: > 15.1 µM
- TGI [21]: > 25 µM
- GI50 [22]: > 18.7 µM
- TGI [22]: > 25 µM
- GI50 [23]: 7.94 µM
- TGI [23]: > 25 µM
- GI50 [24]: 11.7 µM
- TGI [24]: > 25 µM
- GI50 [25]: 6.34 µM
- TGI [25]: > 25 µM
- GI50 [26]: 24.4 µM
- TGI [26]: > 25 µM
- GI50 [27]: 10.2 µM
- TGI [27]: > 25 µM
- GI50 [28]: 9.03 µM
- TGI [28]: > 25 µM
- GI50 [29]: 2.89 µM
- TGI [29]: > 21.6 µM
- GI50 [30]: 6.4 µM
- TGI [30]: > 22 µM
- GI50 [31]: 11.8 µM
- TGI [31]: > 25 µM
- GI50 [32]: 9.6 µM
- TGI [32]: > 25 µM
- GI50 [33]: 6.51 µM
- TGI [33]: > 25 µM
- GI50 [34]: > 13 µM
- TGI [34]: > 25 µM
- GI50 [35]: 14.9 µM
- TGI [35]: > 25 µM
- GI50 [36]: 7.02 µM
- TGI [36]: > 25 µM
- GI50 [37]: 11.3 µM
- TGI [37]: > 25 µM
- GI50 [38]: > 21.4 µM
- TGI [38]: > 25 µM
- GI50 [39]: > 14.8 µM
- TGI [39]: > 25 µM
- GI50 [40]: 11 µM
- TGI [40]: > 25 µM
- GI50 [41]: 13.4 µM
- TGI [41]: > 25 µM
- GI50 [42]: 10.1 µM
- TGI [42]: > 25 µM
- GI50 [43]: 8.01 µM
- TGI [43]: > 25 µM
- GI50 [44]: 4.42 µM
- TGI [44]: > 23.3 µM
- GI50 [45]: 11.9 µM
- TGI [45]: > 25 µM
- GI50 [46]: 9.67 µM
- TGI [46]: > 25 µM
- GI50 [47]: 3.69 µM
- TGI [47]: > 25 µM
- GI50 [48]: 6.31 µM
- TGI [48]: > 25 µM
- GI50 [49]: > 12.4 µM
- TGI [49]: > 25 µM
- GI50 [50]: 5.92 µM
- TGI [50]: > 25 µM
- GI50 [51]: 6.55 µM
- TGI [51]: > 25 µM
- GI50 [52]: 8.29 µM
- TGI [52]: > 25 µM
- GI50 [53]: > 20.6 µM
- TGI [53]: > 25 µM
- GI50 [54]: 5.77 µM
- TGI [54]: > 25 µM
- GI50 [55]: 9.23 µM
- TGI [55]: > 25 µM
- GI50 [56]: 11.3 µM
- TGI [56]: > 25 µM
- GI50 [57]: 12 µM
- TGI [57]: > 25 µM
- GI50 [58]: 1.35 µM
- TGI [58]: > 16.1 µM

SMILES: COc1ccc(N2C(=O)/C(=C\c3cccc(Oc4ccccc4)c3)S(=O)(=O)C2c2ccccc2)cc1 (stereo not given)
- TGI [2]: 91.7 µM
- TGI [3]: > 100 µM
- TGI [5]: > 100 µM
- TGI [6]: 88 µM
- TGI [7]: > 100 µM
- TGI [8]: > 100 µM
- TGI [9]: > 100 µM
- TGI [10]: > 100 µM
- TGI [11]: > 100 µM
- TGI [12]: > 100 µM
- TGI [13]: > 100 µM
- TGI [14]: 60.8 µM
- TGI [16]: > 100 µM
- TGI [17]: 42.5 µM
- TGI [18]: > 100 µM
- TGI [19]: 59.3 µM
- TGI [20]: > 100 µM
- TGI [21]: > 100 µM
- TGI [22]: > 100 µM
- TGI [23]: > 100 µM
- TGI [25]: > 100 µM
- TGI [26]: > 100 µM
- TGI [27]: > 100 µM
- TGI [28]: > 100 µM
- TGI [29]: > 100 µM
- TGI [32]: > 100 µM
- TGI [34]: > 100 µM
- TGI [35]: > 100 µM
- TGI [36]: > 100 µM
- TGI [37]: > 100 µM
- TGI [38]: > 100 µM
- TGI [39]: > 100 µM
- TGI [40]: > 100 µM
- TGI [41]: > 100 µM
- TGI [42]: > 100 µM
- TGI [43]: 46.2 µM
- TGI [44]: > 100 µM
- TGI [45]: > 100 µM
- TGI [47]: > 100 µM
- TGI [49]: 98.7 µM
- TGI [50]: > 100 µM
- TGI [59]: 87.6 µM
- TGI [52]: > 100 µM
- TGI [53]: > 100 µM
- TGI [54]: 22.5 µM
- TGI [55]: > 100 µM
- TGI [56]: 58.9 µM
- TGI [57]: > 100 µM
- TGI [58]: > 100 µM
